Experimental data from patent US20100196326A1, “METHOD AND SYSTEM FOR BIASING CELLULAR DEVELOPMENT” (priority 2004, published 2010).
Entries after “also recorded” stand apart in the source; their conditions may differ.

Experiments:
Format in all cases: cell-based, human
NT2/D1 cells [1] = assay: cell viability assay (trypan blue) and DNA fragmentation analysis after STS treatment
Protocol: (§1) The NT2/D1 cells were seeded (5×10^6 cells per 10 cm Petri dish) in Dulbecco's modified Eagle's medium (DMEM/F-12; Invitrogen) supplemented with 10% heat inactivated fetal bovine serum (FBS; Invitrogen), 0.4 μl/ml penicillin-streptomycin (Invitrogen), and 4 mM glutamine (Invitrogen) and maintained in a humidified atmosphere of 5% CO2/95% air at 37° C. For astrocytic differentiation, 1×10^6 cells were seeded in a 6 well plate and treated three times a week for 3 weeks with 40 nM STS (Sigma). Cells were split twice a week by short exposure to trypsin/EDTA (Invitrogen). Subsequently, these NT2/A cells were evaluated for expression of astrocytic markers and […] by RT-PCR and western blot analysis. After incubation with a different time and concentration of STS, cells were trypsinized and viable cells were counted with a hemocytometer using trypan blue exclusive assay.

NT2/D1 cells [2] = assay: STS-induced astrocytic differentiation, morphology by microscopy; settings: 40 nM STS
Protocol: as §1
Typical fluorescent microscopic pictures of the transfected cell were taken 48 hr after the transfection in a 8 well chamber slides. The cells expressing EGFP were detected by green fluorescence.

NT2/D1 cells [3] = assay: RT-PCR of astrocyte specific and APP gene expression in treated NT2 cells
Protocol: as §1
Total RNA was extracted from the cells and 1 μg of the RNA was reverse-transcribed and amplified using the SuperScript™ ONE STEP™ RT-PCR System (Invitrogen) with the following primers.

Compound: CN[C@@H]1C[C@H]2O[C@@](C)([C@@H]1OC)n1c3ccccc3c3c4c(c5c6ccccc6n2c5c31)C(=O)NC4 [STS, Staurosporine]
- start of mass cell death (NT2/D1 cells [1]; 40 nM STS): 8 h
- cell viability and DNA fragmentation (NT2/D1 cells [1]; STS treatment): cell death
- induction of NT2/A cells (astrocytic morphology) (NT2/D1 cells [2]): induced NT2/A cells; also recorded: induces morphological and functional differentiation
- astrocyte specific gene expression (GFAP, LIF, Delta, Jagged-1, BMP-2, 4, BMP-7, GLT-1/EAAT-2, GLAST/EAAT-1) (NT2/D1 cells [3]; 40 nM STS, RT-PCR): induced astrocyte specific gene expression
- APP gene expression (NT2/D1 cells [3]; during STS-induced astro-gliogenesis): increased in time-dependent manner; also recorded: higher expression level
